These results are taken from patent publication US20110229423A1 (Galderma Research & Development, priority 2008, published 2011).

For the assay, the system named is VPAC1R mRNA. As to the kind of experiment: Semiquantitative RT-PCR of VPAC1R mRNA in HDMEC. Type of assay: cell-based, human. The note with it: 6 h. The method, then: To verify our immunohistochemical observation on the mRNA level that the PACAP-induced effects in human dermal endothelial cells are mediated via VPAC1R, we performed RT PCR analysis for VPAC1R, VPAC2R and PAC1R in HDMEC (FIG. 11. Semiquantitative RT-PCR and gel electrophoresis of VPAC1R (FIG. 11A), PAC1R (FIG. 11B) and β-actin (FIG. 11C) in HDMEC. M=marker; lane 1: unstimulated HDMEC; lane 2: TNFα stimulated (4 ng/ml) HDMEC; lane 3 (11A): LPS-stimulated (10 ng/ml) HDMEC; lane 3 (11 B and 11C): HNK cells as positive control; lane 4: RT-control (negative control) In non-stimulated HDMEC cells, mRNA message was only found for PACAP and VPAC1R (FIG. 11A), but not PAC1R (FIG. 11B;) and VPAC2R (data not shown). Note that the PAC1R signal is positive in HNK cells that were used as a positive control. To examine whether proinflammatory mediators such as TNFα or LPS are capable of regulating VPAC1R mRNA expression, HDMEC were harvested without or 6 h after stimulation with TNFα (concentration: 4 ng/ml) or LPS (concentration: 10 ng/ml), respectively, and semiquantitative RT PCR was performed (FIG. 11). To consider the relative mRNA amount in the samples amplification of the housekeeping gene β-actin served as an internal control (FIG. 11C), TNFα as well as LPS induced upregulation of VPAC1R mRNA as compared to the unstimulated controls (FIG. 11). […]

With TNFα, the “VPAC1R mRNA compared to unstimulated controls” value (4 ng/ml) is reported as “upregulation”.

In the case of LPS, the “VPAC1R mRNA compared to unstimulated controls” value (10 ng/ml) is listed as “upregulation”.
